Measured values as given in patent US11150251B2, “Bi-functional arginine-glycine-aspartic acid (RGD) peptides and methods to promote angiogenesis” (Clemson University Research Foundation, priority 2016, dated 2021).
Entries after “also recorded” stand apart in the source; their conditions may differ. Blank lines part the entries; values can stand above or below the substance they belong to. Ends that are not written are not given here. * marks the point of attachment. Meth = methacrylated, methacrylate group attached (2-isocyanatoethyl methacrylate used), C=C(C)C(=O)OCCNC(=O)*

How the values were obtained:
hiPSC-CMs [1] = experiment: hiPSC-CM adhesion on RGD peptide-functionalized PEG hydrogel microarray; format: cell-based, human; conditions: 15 mM peptide, 3 days culture, 18 replicates
Procedure: (§1) PEGDA and methacrylated peptides were mixed at one fixed peptide concentration (15 mM) to prepare microarrayed hydrogels with a constant peptide concentration. hiPSC-CMs (human induced pluripotent stem cell-derived cardiomyocytes from Cellular Dynamics International, Madison, Wis., USA) were seeded onto the microarray and cultured for 3 days to facilitate the formation of sarcomere structures. hiPSC-CMs were stained with DAPI to approximate cell number and phalloidin for F-actin to estimate cell spreading. Sarcomere structure was examined by using immunofluorescence microscopy.
hiPSC-derived cardiomyocytes (iCell Cardiomyocytes, Cellular Dynamics International, Madison, Wis., USA) were cultured according to the manufacturer's protocol. Briefly, hiPSC-derived cardiomyocytes were plated on 0.1% gelatin coated 6-well plates in iCell Cardiomyocytes Plating Medium (Cellular Dynamics International) at a density of about 3×10^5 to 4.0×10^5 cells/well and incubated at 37° C. in 5% CO2 for 4 days. Two days after plating, the plating medium was removed and replaced with 4 mL of iCell Cardiomyocytes Maintenance Medium (Cellular Dynamics International). After 4 days of monolayer pre-culture, cells were detached using trypLE Express (Gibco Life Technologies, Grand Island, N.Y.) and seeded along with culture media on the hydrogel microarrays. […] Sarcomere structures were visualized using sarcomere actinin and troponin-I staining as described above.

hiPSC-CMs [2] = experiment: Sarcomere formation / alpha sarcomeric actinin expression of hiPSC-CMs on hydrogel microarray; format: cell-based, human; conditions: 15 mM peptide, 3 days culture
Procedure: as §1
Briefly, hiPSC-CMs on the microarray were fixed with 4% PFA solution and blocked by 10% goat serum. […] Z-stacked Images collected from the microarray were analyzed by using the ImageJ (National Institutes of Health) for semi-quantitative analysis of the expression level of alpha sarcomeric actinin of hiPSC-CMs on the microarrays. The sarcomeric actinin expression level of hiPSC-CMs on each hydrogel spot was determined by the total fluorescence intensities of sarcomeric actinin staining divided by the total cell number on the hydrogel spot, which was then normalized to the blank PEG-700 hydrogel spots. […]

[3] = system: VLA-6 (α6) and αvβ3 integrin subunits; conditions: cited from earlier work
hADSCs = experiment: hADSC adhesion on peptide-functionalized PEGDA-700 hydrogel microarray (peptide function validation, glycine linker length); format: cell-based, human; conditions: for adhesion of hADSCs on peptide-functionalized PEGDA-700 hydrogels: 15 mM peptide; for saturation number of attached hADSCs relative to MethRGDSP and MethG2RGDSP: saturated (maximum) number of attached cells, peptide 0.5-15 mM, 12 hours
Procedure: PEGDA and methacrylated peptides were mixed at varied peptide concentrations (i.e., 0.5, 1, 3, 6, 9, 12 and 15 mM) to prepare microarrayed hydrogels with different peptide concentrations. hADSCs were seeded onto the array and cultured for 12 hours.
All experiments were conducted using passage 5 (P5) hADSCs.

VLA-6 integrin = biological target: T1, VLA-6 integrin (Homo sapiens, UniProt P05556+P23229); experiment: Integrin antibody blocking of HUVEC adhesion on alginate surface, anti VLA-6; format: cell-based; conditions: 2D peptide-functionalized alginate, anti VLA-6 1:20, 6 hours
T1 construct: endogenous in cells; host or cells: HUVEC
T1 sequence (P23229 24-938 limits assumed): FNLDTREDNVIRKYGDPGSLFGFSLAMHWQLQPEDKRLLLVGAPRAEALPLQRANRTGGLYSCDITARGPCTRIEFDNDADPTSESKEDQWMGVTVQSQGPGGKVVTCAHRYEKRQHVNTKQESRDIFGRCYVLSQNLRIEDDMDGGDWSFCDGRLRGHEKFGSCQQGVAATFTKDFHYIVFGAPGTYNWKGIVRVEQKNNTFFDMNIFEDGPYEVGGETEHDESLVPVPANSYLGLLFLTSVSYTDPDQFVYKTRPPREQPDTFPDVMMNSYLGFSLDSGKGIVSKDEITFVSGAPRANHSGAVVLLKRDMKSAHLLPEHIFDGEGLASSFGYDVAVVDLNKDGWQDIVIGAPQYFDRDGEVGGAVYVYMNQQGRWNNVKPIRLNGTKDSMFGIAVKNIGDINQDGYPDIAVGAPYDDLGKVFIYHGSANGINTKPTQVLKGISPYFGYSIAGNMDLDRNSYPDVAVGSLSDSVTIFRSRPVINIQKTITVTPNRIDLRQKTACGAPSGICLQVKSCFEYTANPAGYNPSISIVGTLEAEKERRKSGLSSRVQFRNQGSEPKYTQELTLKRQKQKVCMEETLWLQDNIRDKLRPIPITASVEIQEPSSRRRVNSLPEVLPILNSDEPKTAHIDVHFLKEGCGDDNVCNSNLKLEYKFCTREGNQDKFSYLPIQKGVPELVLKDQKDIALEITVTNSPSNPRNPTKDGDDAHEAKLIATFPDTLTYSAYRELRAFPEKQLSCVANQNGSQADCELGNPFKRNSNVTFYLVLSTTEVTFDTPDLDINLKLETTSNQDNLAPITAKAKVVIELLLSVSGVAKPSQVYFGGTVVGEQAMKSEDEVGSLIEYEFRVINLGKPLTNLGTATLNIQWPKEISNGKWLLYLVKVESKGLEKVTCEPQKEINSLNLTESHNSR
T1 sequence (P23229 942-1130 partner limits assumed): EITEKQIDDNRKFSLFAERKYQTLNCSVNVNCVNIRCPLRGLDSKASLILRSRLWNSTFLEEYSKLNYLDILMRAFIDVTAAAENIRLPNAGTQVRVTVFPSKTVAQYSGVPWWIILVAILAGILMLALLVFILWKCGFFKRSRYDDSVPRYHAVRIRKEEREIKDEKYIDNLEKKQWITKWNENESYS
T1 sequence (P05556 21-798): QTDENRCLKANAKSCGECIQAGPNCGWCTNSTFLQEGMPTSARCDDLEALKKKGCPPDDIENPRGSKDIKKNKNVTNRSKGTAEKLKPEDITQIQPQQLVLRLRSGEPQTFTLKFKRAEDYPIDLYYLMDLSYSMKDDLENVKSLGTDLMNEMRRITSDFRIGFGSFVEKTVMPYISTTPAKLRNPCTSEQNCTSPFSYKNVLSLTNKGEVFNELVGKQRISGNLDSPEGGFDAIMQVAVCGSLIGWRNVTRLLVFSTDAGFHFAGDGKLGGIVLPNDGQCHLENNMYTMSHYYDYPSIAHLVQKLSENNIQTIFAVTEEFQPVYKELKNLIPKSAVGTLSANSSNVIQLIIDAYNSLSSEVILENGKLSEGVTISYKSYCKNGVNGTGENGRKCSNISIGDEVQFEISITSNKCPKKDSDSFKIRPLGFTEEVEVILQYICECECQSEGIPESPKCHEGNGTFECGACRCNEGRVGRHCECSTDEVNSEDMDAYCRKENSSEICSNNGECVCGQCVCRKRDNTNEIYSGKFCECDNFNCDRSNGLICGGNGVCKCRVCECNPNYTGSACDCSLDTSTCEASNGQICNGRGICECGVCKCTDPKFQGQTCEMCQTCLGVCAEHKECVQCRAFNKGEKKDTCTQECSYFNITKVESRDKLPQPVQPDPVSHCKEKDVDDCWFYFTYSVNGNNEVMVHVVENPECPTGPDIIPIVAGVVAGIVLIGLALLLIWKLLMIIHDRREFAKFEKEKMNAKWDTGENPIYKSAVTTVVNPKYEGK
Procedure: (§2) The integrin antibodies and their combinations (no antibody, anti VLA-6 only, anti-integrin αvβ3 only and anti VLA-6+ anti-integrin αvβ3,) were aliquot into predesigned ratio (final ratios in the mixture: 1:20 for anti VLA-6, 1:100 for anti-integrin αvβ3) with PBS, respectively. The HUVECs were incubated with these antibodies for 15 min, sedimented by low speed centrifugation, suspended in 100 μl of serum-free MEM plus 0.02% BSA and then added into the 1% alginate gel coated wells. The wells were transferred into incubator for 6 hours. After that, unattached cells were rinsed from the wells and the attached cells were then fixed and stained with DAPI for cell number counting and phalloidin for F-actin.

VLA-6 and αvβ3 integrin = experiment: Integrin antibody blocking of HUVEC adhesion on alginate surface, anti VLA-6 + anti-integrin αvβ3; format: cell-based, human; conditions: for integrin binding concluded from blocking experiments: HUVECs on peptide-functionalized alginates; for decrease in HUVEC adhesion when both VLA-6 and αvβ3 integrin are blocked: 2D peptide-functionalized alginate, both antibodies, 6 hours
Procedure: as §2

KDR (VEGFR2) = experiment: RT-PCR of VEGFR2 mRNA in HUVECs in 3D peptide-modified alginate gel; format: cell-based, human; conditions: HUVECs in 3D peptide-functionalized alginate hydrogels, 6 hours culture
Procedure: Before PCR experiments, HUVECs were seeded in three different peptides (RGDS (SEQ ID NO:35), RGDSP (SEQ ID NO:33) and α1-peptide, respectively) modified 1% alginate gel. The cells were cultured for 6 hrs and then harvest for RNA isolation. Total RNA was isolated according to the kit and protocol of an RNeasy Micro Kit (Qiagen, Vinlo, Netherlands) with the addition of the QIAShredder (Qiagen) during the homogenization step for HUVECs. For each group, around 0.1 million cells were used for RNA isolation. At least 25 ng of total RNA for each group was used for cDNA synthesis by the Bio-Rad (Hercules, USA) iScript cDNA synthesis kit. qRT-PCR was executed with “best coverage” validated Taqman primers (Life Technologies, Carlsbad, USA) in 10 μl reactions for the following genes: KDR (VEGFR2), ACTB, GAPDH. qRT-PCR Data was normalized as the change in cycle threshold (dCt) from the geometric mean of ACTB and GAPDH expression. Expression was analyzed using mRNA expression=2^(−(dCt)) and then normalized to the gene expression from RGDS (SEQ ID NO:35) samples.

HUVECs [4] = experiment: HUVEC culture in 3D peptide-functionalized alginate hydrogels (spreading, proliferation, network formation); format: cell-based, human; conditions: 1% alginate, 10% (w/w) peptide, 6 million HUVECs/ml, 2 days culture
Procedure: The Ca2+ containing substrates for alginate crosslinking was prepared as the previous literature mentioned. Alginate modified with these peptides (RGDS (SEQ ID NO:35), RGDSP (SEQ ID NO:33) and α1-peptide, respectively) was dissolved into HUVECs culturing media to prepare 1% alginate solution. […] mixture of the alginate and HUVECs was transferred into each well in 96 well plates (3 replicates for each peptide). The alginate was left gelling for 40 min. Then the well plates were transferred into incubator for 10 min to melt the Ca2+ containing substrates. After Ca2+ containing substrates get removed, HUVEC culturing media was added into each well and continue culture for additional two days. Media were changed every day. The cells were then fixed and stained with DAPI for cell number counting and phalloidin for F-actin to estimate cell spreading at day 0 and day 2. The fluorescent pictures were taken by a Leica TCS SP5 AOBS confocal microscope system. The total tubule length and the proliferation rates were measured.

HUVECs (EC integrin) = experiment: HUVEC adhesion on RGD peptide-functionalized PEG hydrogel microarray; format: cell-based, human; conditions: for affinity to HUVECs / HUVEC adhesion on PEG hydrogel microarray: 12 hours culture
Procedure: Methacrylated peptides (shown in FIG. 7) were dissolved in DMF at pre-designated ratios (1 mM, 3 mM, 6 mM, 9 mM, 12 mM, 15 mM and 20 mM) and mixed with PEGDA (containing 1% DMPA as initiator) (DMF solution of methacrylated peptide: PEGDA=1:1 (v/v)) and then transferred into a 384 well plate for microarray fabrication. The microarrays were printed in a humid Ar-atmosphere on epoxy monolayer-coated glass slides (Xenopore XENOSLIDE E, Hawthorne, N.J.) which were first dip-coated in 4 v/v % poly(hydroxyethyl methacrylate) (i.e., poly(HEMA)) using a customized microarrayer (Biodot). Spots were polymerized via 10 s exposure to long wave UV (365 nm), dried at <50 mtorr for at least 7 days. Before use, the chips were sterilized by UV for 30 min for each side, and then washed with PBS twice for 15 min to remove residual monomer or solvent. HUVECs (human umbilical vein endothelial cells from Lonza, Basel, Switzerland) were seeded onto the array and cultured for 12 hours. They were then fixed and stained with DAPI for cell number counting and phalloidin for F-actin to estimate cell spreading for the lead peptide identification.

HUVECs [5] = experiment: HUVEC adhesion on 2D surface of peptide-modified alginate hydrogel; format: cell-based, human; conditions: 10% (w/w) peptide, 1% alginate, versus RGDS
Procedure: The peptides were conjugated onto the oxidized alginate by the EDC-NHS chemistry as reported by Rowley: using aqueous carbodiimide reacted with peptides (RGDS (SEQ ID NO:35), RGDSP (SEQ ID NO:33) and α1-peptide) onto the oxidized alginate. In order to secure sufficient cell attachment, 10% (w/w) peptide modification was performed into the alginate hydrogel.
The Ca2+ containing substrates for alginate crosslinking was prepared according to the literature. 50 μl, 1% alginate modified with peptides (RGDS (SEQ ID NO:35), RGDSP (SEQ ID NO:33) and α1-peptide, respectively) aqueous solution was transferred into each well in 96 well plates (3 replicates for each peptide). The alginate was left gelling for 40 min. Then the well plates were transferred into incubator for 10 min to melt the Ca2+ containing substrates. After Ca2+ containing substrates get removed, HUVECs were seeded onto the hydrogel layers and cultured for 12 hours. Then they were fixed and stained with DAPI for cell number counting and phalloidin for F-actin to estimate cell spreading.

αvβ3 integrin = biological target: T2, αvβ3 integrin (Homo sapiens, UniProt P05106+P06756); experiment: Integrin antibody blocking of HUVEC adhesion on alginate surface, anti-integrin αvβ3; format: cell-based; conditions: 2D peptide-functionalized alginate, anti-integrin αvβ3 1:100, 6 hours
T2 construct: endogenous in cells; host or cells: HUVEC
T2 sequence (P06756 31-889 limits assumed): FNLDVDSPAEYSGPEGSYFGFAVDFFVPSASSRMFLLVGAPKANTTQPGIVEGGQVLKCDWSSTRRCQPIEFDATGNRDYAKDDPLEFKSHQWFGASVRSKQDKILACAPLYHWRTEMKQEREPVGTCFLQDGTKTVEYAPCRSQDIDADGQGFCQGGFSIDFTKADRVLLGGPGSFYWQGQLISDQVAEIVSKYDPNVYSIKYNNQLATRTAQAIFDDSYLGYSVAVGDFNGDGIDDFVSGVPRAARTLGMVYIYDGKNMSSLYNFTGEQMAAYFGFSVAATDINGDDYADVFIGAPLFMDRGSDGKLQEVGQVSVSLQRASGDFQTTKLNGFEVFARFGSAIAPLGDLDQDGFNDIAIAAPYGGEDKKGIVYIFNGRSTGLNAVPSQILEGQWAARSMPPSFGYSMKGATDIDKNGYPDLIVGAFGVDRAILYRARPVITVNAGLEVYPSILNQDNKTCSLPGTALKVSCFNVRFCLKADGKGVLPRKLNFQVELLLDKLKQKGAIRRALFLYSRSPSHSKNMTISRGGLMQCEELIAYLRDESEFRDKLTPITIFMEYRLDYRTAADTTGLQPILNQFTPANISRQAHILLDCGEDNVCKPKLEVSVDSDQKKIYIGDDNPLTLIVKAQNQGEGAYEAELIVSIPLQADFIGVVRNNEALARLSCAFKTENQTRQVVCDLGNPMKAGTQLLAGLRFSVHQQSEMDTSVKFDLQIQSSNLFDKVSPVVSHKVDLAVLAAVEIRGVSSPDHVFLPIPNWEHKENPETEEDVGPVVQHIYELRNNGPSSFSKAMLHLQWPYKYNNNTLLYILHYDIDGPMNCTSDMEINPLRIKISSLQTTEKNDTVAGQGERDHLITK
T2 sequence (P06756 891-1048 partner limits assumed): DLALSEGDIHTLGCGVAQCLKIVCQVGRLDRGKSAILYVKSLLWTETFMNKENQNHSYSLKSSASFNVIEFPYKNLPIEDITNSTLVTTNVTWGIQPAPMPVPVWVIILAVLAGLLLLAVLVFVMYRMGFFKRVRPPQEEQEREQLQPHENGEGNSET
T2 sequence (P05106 27-788): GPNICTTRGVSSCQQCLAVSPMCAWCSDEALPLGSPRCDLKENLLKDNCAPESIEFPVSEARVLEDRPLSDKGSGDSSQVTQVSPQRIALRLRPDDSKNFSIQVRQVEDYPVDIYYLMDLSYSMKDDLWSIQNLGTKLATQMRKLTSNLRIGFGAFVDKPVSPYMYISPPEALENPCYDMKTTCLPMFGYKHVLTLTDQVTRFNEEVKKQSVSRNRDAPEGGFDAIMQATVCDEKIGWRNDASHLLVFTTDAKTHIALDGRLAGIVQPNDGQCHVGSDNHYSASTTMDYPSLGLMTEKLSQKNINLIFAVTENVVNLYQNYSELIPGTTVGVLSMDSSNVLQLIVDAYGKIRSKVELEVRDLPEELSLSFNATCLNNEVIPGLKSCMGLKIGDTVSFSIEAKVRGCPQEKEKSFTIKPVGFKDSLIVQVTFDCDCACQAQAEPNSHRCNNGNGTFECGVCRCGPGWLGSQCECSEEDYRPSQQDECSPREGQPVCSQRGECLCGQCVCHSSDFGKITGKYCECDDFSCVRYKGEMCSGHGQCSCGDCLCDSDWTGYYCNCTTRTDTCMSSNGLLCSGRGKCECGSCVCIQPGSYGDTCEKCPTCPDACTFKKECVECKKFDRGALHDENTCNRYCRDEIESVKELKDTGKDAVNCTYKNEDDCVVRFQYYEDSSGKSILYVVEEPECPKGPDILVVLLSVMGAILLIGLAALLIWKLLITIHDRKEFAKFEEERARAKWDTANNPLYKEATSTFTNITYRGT
Procedure: as §2

Substance: PMQKMRGDVFSP [derived from Laminin subunit β4]
- hiPSC-CM adhesion / affinity to hiPSC-CMs (hiPSC-CMs [1]): greatest ability to promote hiPSC-CM adhesion; also recorded: substantial activities to support hiPSC-CM adhesion; also recorded: highest affinity to hiPSC-CMs
- sarcomere formation / sarcomeric actinin expression of hiPSC-CMs (hiPSC-CMs [2]): greatest ability to promote hiPSC-CM adhesion and sarcomere formation; also recorded: most developed sarcomere structures
- sarcomere formation / sarcomeric actinin expression of hiPSC-CMs (hiPSC-CMs [2]; listed as RGD (SEQ ID NO:36) peptide from laminin β4 subunit): highest sarcomeric actinin expression

Substance: CQAGTFALRGDNPQG [A99, similar Ln derived peptide]
- integrin binding reported for A99 [3]: bind to both VLA-6 (α6) and αvβ3 integrin subunits

Substance: MethG4RGDSP: methacrylated-RGDSP-peptide with 4 glycine linker (Meth-GGGGRGDSP)
- adhesion of hADSCs on peptide-functionalized PEGDA-700 hydrogels (hADSCs): effectively promote adhesion of hADSCs
- saturation number of attached hADSCs relative to MethRGDSP and MethG2RGDSP (hADSCs): about one-fold higher

Substance: SETQRGDVFVP [RGD peptide of the 12-peptide library, reference compound]
- hiPSC-CM adhesion / affinity to hiPSC-CMs (hiPSC-CMs [1]): moderate cell adhesion

Substance: G4RDGSP: methacrylated scrambled sequence of G4RGDSP (Meth-GGGGRDGSP) [reference compound]
- adhesion of hADSCs on peptide-functionalized PEGDA-700 hydrogels (hADSCs): no cell adhesion

Substance: MethG6RGDSP: methacrylated-RGDSP-peptide with 6 glycine linker (Meth-GGGGGGRGDSP)
- saturation number of attached hADSCs relative to MethRGDSP and MethG2RGDSP (hADSCs): about one-fold higher

- integrin binding concluded from blocking experiments (VLA-6 and αvβ3 integrin): bind to αvβ3 integrin
Substance: RGDSP [RGD peptide derived from Fn]
- decrease in HUVEC adhesion when VLA-6 integrin is blocked (VLA-6 integrin): does not significantly affect cell adhesion
- mRNA expression of VEGFR2 (KDR (VEGFR2)): significant higher amount of VEGFR2 mRNA expression
- HUVEC spreading, proliferation and network formation in 3D alginate hydrogel (HUVECs [4]): limited cell spreading and no visible network formation
- affinity to HUVECs / HUVEC adhesion on PEG hydrogel microarray (HUVECs (EC integrin)): significantly higher affinity to HUVECs than RGDS

Substance: PQVTRGDVFTMP [RGD peptide from vitronectin, included as a control, reference compound]
- hiPSC-CM adhesion / affinity to hiPSC-CMs (hiPSC-CMs [1]): moderate cell adhesion

- integrin binding concluded from blocking experiments (VLA-6 and αvβ3 integrin): binds to both VLA-6 and αvβ3 integrin
Substance: TFALRGDNP [α1 peptide, RGD peptide derived from Ln α1 subunit]
- decrease in HUVEC adhesion when both VLA-6 and αvβ3 integrin are blocked (VLA-6 and αvβ3 integrin): ~70%
- mRNA expression of VEGFR2 (KDR (VEGFR2)): significantly up-regulated
- HUVEC spreading, proliferation and network formation in 3D alginate hydrogel (HUVECs [4]): significantly enhanced cell proliferation and network formation
- number of HUVECs attached to 2D surface of alginate hydrogel, higher than RGDS (HUVECs [5]): ~150%
- affinity to HUVECs / HUVEC adhesion on PEG hydrogel microarray (HUVECs (EC integrin)): highest activities to promote HUVEC adhesion
- saturated number of attached HUVECs, higher than RGDS (HUVECs (EC integrin); PEG hydrogel microarray, versus RGDS): ~500%
- saturated number of attached HUVECs, higher than RGDSP (HUVECs (EC integrin); PEG hydrogel microarray, versus RGDSP): ~200%

Substance: DAVKQLQAAERGDA [derived from Laminin subunit α4]
- hiPSC-CM adhesion / affinity to hiPSC-CMs (hiPSC-CMs [1]): substantial activities to support hiPSC-CM adhesion

- integrin binding concluded from blocking experiments (VLA-6 and αvβ3 integrin): bind to αvβ3 integrin
- decrease in HUVEC adhesion when αvβ3 integrin is blocked (αvβ3 integrin): ~35%
Substance: RGDS [RGD peptide derived from Fn]
- decrease in HUVEC adhesion when VLA-6 integrin is blocked (VLA-6 integrin): does not significantly affect cell adhesion
- decrease in HUVEC adhesion when both VLA-6 and αvβ3 integrin are blocked (VLA-6 and αvβ3 integrin): ~35%
- HUVEC spreading, proliferation and network formation in 3D alginate hydrogel (HUVECs [4]): limited cell spreading and no visible network formation
